Experimental data from US20250026741A1, “INHIBITORS OF THE ONCOGENIC SHP2 PHOSPHATASE AND USES THEREOF” (Sanford Burnham Prebys Medical Discovery Institute, priority 2021, published 2025).

Columns and labels:
Format in all cases: biochemical
[1] = biological target: full-length SHP2-E76K oncogenic mutant (Homo sapiens (Human), UniProt Q06124, E76K); assay: DiFMUP fluorescence intensity phosphatase inhibition assay, SHP2-E76K; details: DiFMUP at Km (20 μM), 10-point dose-response; read-out: SHP2-E76K IC50
Excerpt: (§1) To test the synthesized compounds for their potential to inhibit SHP2 activity, a fluorescence intensity-based assay using 6,8-difluoro-4-methylumbelliferyl phosphate (DiFMUP) as the substrate was adapted for three recombinant SHP2 constructs: 1) the SHP2 catalytic domain (SHP2cat; residues 248-527), 2) the full-length SHP2-E76K oncogenic mutant, and 3) the full-length SHP2 wild-type (SHP2-WT). The recombinant SHP2 proteins were expressed and purified. A dually phosphorylated peptide derived from the insulin receptor substrate 1 (IRS-1) served as a surrogate binding protein and was used to activate SHP2-WT. […] Michaelis-Menten experiments to determine the DiFMUP Michaelis-Menten constant (Kmn) for each SHP2 construct were performed and yielded the following values: SHP2-WT, Km=60 μM; SHP2-E76K, Km=20 μM; SHP2cat, Km=20 μM. Relative maximum rates (Vmax) of the DiFMUP reactions were as follows: SHP2-WT, Vmax=871 AFU/min; SHP2-E76K, Vmax, =2730 AFU/min; SHP2cat, Vmax=2912 AFU/min. IC50 values for each compound were determined from initial rates in 10-point dose-response assays using DiFMUP at a concentration corresponding to its Km value for the respective SHP2 construct.
(§2) SHP2 inhibitors were tested at room temperature (RT) in a 384-well plate format standard phosphatase fluorescence intensity assay using DiFMUP (Invitrogen/Thermo Fisher Scientific, Carlsbad, CA) as a substrate and a total reaction volume of 25 μL. SHP2 inhibitors or vehicle (DMSO) were spotted in triplicate into a black Greiner FLUOTRAC™ 200 384-well microplate (#781076, Greiner) for a 10-point dose-response assay using an Echo®555 Liquid Handler (Labcyte, Inc., San Jose, CA). PTP working solutions were prepared at a 0.625 nM concentration (for a final concentration of 0.5 nM) in buffer containing 50 mM Bis-Tris pH 6.0, 50 mM NaCl, 5 mM DTT, and 0.01% Tween® 20. Prior to the assay, a dually phosphorylated insulin receptor substrate 1 (IRS-1) peptide [625 nM (500 nMfinal) (30)] was added to full-length WT SHP2 working solutions and incubated for 20 min. DiFMUP working solutions at 5× final concentration were prepared in 50 mM Bis-Tris pH 6.0, 50 mMNaCl, and 0.01% Tween 20. 20 μL of PTP working solution was dispensed into the microplate and incubated with inhibitor for 20 min at RT. […] The reaction was initiated by addition of 5 μL DiFMUP working solutions. Fluorescence intensity was measured in kinetic mode (every minute for 7 or 10 min) using a Tecan Spark® Multimode Microplate Reader (Tecan, Groedig, Austria) with an excitation wavelength of 360 nm and an emission wavelength of 460 nm. The initial rates were determined from the linear progression curves of the PTP reaction. The nonenzymatic hydrolysis of the substrate was corrected by using a control without addition of enzyme. IC50 values were calculated from the corrected initial rates by nonlinear regression using the program GraphPad Prism (GraphPad Software, Inc., San Diego, CA) Version 8. Dose-response inhibition assays of SHP2cat using the substrate OMFP were performed similarly as described above for DiFMUP. OMFP was used at a concentration corresponding to its Km value for SHP2cat (50 μM final). Fluorescence intensity was measured in kinetic mode (every minute for 10 min) using a Tecan Spark Multimode Microplate Reader with an excitation wavelength of 485 nm and an emission wavelength of 535 nm. Initial rates were determined and IC50 vales calculated as described above.

[2] = biological target: SHP2 catalytic domain (SHP2cat; residues 248-527) (Homo sapiens (Human), UniProt Q06124); assay: DiFMUP fluorescence intensity phosphatase inhibition assay, SHP2cat; details: DiFMUP at Km (20 μM); read-out: SHP2cat IC50
Excerpt: as §1, §2

[3] = biological target: full-length SHP2 wild-type (SHP2-WT) (Homo sapiens (Human), UniProt Q06124); assay: DiFMUP fluorescence intensity phosphatase inhibition assay, SHP2-WT activated with IRS-1 peptide; details: DiFMUP at Km (60 μM), IRS-1 peptide activated
Excerpt: as §1, §2

Chain of SHP2 catalytic domain (SHP2cat; residues 248-527) (Q06124 248-527): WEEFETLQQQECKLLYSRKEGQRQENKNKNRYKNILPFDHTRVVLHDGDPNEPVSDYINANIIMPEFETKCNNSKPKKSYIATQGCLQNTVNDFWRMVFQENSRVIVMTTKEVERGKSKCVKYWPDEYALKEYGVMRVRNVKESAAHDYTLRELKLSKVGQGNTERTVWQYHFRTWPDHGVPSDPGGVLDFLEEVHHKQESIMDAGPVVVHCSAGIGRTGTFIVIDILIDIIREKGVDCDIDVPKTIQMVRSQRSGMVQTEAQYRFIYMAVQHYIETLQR
Chain of full-length SHP2-E76K oncogenic mutant (Q06124 whole entry E76K, the tested form may be a part): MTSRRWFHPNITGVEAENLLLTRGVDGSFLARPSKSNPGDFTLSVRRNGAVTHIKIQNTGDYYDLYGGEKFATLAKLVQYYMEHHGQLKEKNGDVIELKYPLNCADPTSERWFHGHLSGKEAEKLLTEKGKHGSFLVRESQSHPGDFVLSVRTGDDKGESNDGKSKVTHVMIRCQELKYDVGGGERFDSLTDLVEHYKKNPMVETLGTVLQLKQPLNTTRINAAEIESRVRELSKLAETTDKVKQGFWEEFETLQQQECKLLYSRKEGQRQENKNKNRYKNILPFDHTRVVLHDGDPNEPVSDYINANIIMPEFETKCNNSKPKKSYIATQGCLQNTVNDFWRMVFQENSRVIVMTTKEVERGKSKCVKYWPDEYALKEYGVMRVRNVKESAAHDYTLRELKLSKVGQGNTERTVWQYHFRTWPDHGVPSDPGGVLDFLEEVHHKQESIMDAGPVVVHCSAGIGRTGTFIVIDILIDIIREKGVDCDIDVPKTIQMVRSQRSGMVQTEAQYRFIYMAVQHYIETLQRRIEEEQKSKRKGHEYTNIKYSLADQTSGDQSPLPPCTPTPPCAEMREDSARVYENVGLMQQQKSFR
Chain of full-length SHP2 wild-type (SHP2-WT) (Q06124 whole entry, other chains not shown): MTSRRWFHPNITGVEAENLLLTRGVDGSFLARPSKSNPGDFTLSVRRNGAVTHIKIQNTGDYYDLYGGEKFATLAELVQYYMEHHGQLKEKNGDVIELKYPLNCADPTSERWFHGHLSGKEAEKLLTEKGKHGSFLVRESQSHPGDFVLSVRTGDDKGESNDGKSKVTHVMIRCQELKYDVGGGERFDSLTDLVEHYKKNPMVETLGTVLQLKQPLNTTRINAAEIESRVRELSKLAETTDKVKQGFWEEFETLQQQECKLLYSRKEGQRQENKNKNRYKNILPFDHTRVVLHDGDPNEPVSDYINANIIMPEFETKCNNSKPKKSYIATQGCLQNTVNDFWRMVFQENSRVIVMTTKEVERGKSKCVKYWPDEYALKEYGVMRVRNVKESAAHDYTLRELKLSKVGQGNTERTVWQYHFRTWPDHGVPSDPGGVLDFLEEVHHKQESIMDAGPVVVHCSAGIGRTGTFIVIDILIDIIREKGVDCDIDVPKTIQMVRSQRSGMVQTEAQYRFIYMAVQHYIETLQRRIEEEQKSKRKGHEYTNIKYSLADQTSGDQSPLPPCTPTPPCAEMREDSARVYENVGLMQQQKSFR

O=C1/C(=C/c2ccc(-c3ccc(O)c(-c4nn[nH]n4)c3)o2)Sc2ccccc21 [#04, (Z)-2-((5-(4-Hydroxy-3-(2H-tetrazol-5-yl)phenyl)furan-2-yl)methylene)benzo[b]thiophen-3(2H)-one] gave an IC50 [1] of 1 to 20 µM, an IC50 [2] of 1 to 20 µM and an IC50 [3] of 1 to 20 µM.
For O=C1CCC/C1=C\c1ccc(-c2ccc(O)c(C(=O)O)c2)o1 [#06, 2-Hydroxy-5-(5-((2-oxocyclopentylidene)methyl)furan-2-yl)benzoic acid], the IC50 [1] was 1 to 20 µM, the IC50 [2] was 1 to 20 µM and the IC50 [3] was 20 to 100 µM.
O=C(O)c1cc(-c2ccc(/C=C3\Oc4ccccc4C3=O)o2)ccc1O [#07, (Z)-2-Hydroxy-5-(5-((3-oxobenzofuran-2(3H)-ylidene)methyl)furan-2-yl)benzoic acid] showed an IC50 [1] of 1 to 20 µM, an IC50 [2] of 1 to 20 µM and an IC50 [3] of 1 to 20 µM.
With Nc1cccc(NC(=O)c2cc(-c3ccc(/C=C4\Sc5ccccc5C4=O)o3)ccc2O)c1 [#08, (Z)—N-(3-aminophenyl)-2-hydroxy-5-(5-((3-oxobenzo[b]thiophen-2(3H)-ylidene)methyl)furan-2-yl)benzamide] the IC50 [1] was 1 to 20 µM, the IC50 [2] was 1 to 20 µM and the IC50 [3] was 1 to 20 µM.
O=C(O)c1cc(-c2ccc(/C=C3\Cc4ccccc4C3=O)o2)ccc1O [#09, 2-Hydroxy-5-(5-((1-oxo-1,3-dihydro-2H-inden-2-ylidene)methyl)furan-2-yl)benzoic acid] gave an IC50 [1] of 1 to 20 µM, an IC50 [2] of 1 to 20 µM and an IC50 [3] of 1 to 20 µM.
For O=C(NNc1ccccc1)c1cc(-c2ccc(/C=C3\Sc4ccccc4C3=O)o2)ccc1O [#11, (Z)-2-Hydroxy-5-(5-((3-oxobenzo[b]thiophen-2(3H)-ylidene)methyl)furan-2-yl)-N′-phenylbenzohydrazide], the IC50 [1] was 1 to 20 µM, the IC50 [2] was 1 to 20 µM and the IC50 [3] was 1 to 20 µM.
With CC(C)NC(=O)c1cc(-c2ccc(/C=C3\Sc4ccccc4C3=O)o2)ccc1O [#13, (Z)-2-Hydroxy-N-isopropyl-5-(5-((3-oxobenzo[b]thiophen-2(3H)-ylidene)methyl)furan-2-yl)benzamide] the IC50 [1] was 1 to 20 µM and the IC50 [3] was 20 to 100 µM.
Work on O=C1CCCC/C1=C\c1ccc(-c2ccc(O)c(C(=O)O)c2)o1 [#14, 2-Hydroxy-5-(5-((2-oxocyclohexylidene)methyl)furan-2-yl)benzoic acid] yielded an IC50 [1] of 20 to 100 µM and an IC50 [3] of 20 to 100 µM.
With O=C(Nc1ccccc1)c1cccc(-c2ccc(/C=C3\Sc4ccccc4C3=O)o2)c1 [#15, (Z)-3-(5-((3-Oxobenzo[b]thiophen-2(3H)-ylidene)methyl)furan-2-yl)-N-phenylbenzamide] the IC50 [1] was 20 to 100 µM and the IC50 [3] was 20 to 100 µM.
With O=C(NCc1ccccc1)c1cccc(-c2ccc(/C=C3\Sc4ccccc4C3=O)o2)c1 [#16, (Z)—N-Benzyl-3-(5-((3-oxobenzo[b]thiophen-2(3H)-ylidene)methyl)furan-2-yl)benzamide] the IC50 [1] was 20 to 100 µM and the IC50 [3] was ≥ 100 µM.
In the case of O=C1/C(=C/c2ccc(-c3ccc(O)cc3)o2)Sc2ccccc21 [#17, (Z)-2-((5-(4-Hydroxyphenyl)furan-2-yl)methylene)benzo[b]thiophen-3(2H)-one], the IC50 [1] is reported as 20 to 100 µM and the IC50 [3] is reported as ≥ 100 µM.
COc1ccc(-c2ccc(/C=C3\Sc4ccccc4C3=O)o2)cc1C(=O)Nc1ccccc1 [#18, (Z)-2-Methoxy-5-(5-((3-oxobenzo[b]thiophen-2(3H)-ylidene)methyl)furan-2-yl)-N-phenylbenzamide] showed an IC50 [1] of 20 to 100 µM and an IC50 [3] of 20 to 100 µM.
O=C1/C(=C/c2ccc(-c3ccc(O)c(C(=O)N4CCNCC4)c3)o2)Sc2ccccc21 [#19, (Z)-2-((5-(4-Hydroxy-3-(piperazine-1-carbonyl)phenyl)furan-2-yl)methylene)benzo[b]thiophen-3(2H)-one] was tested, and the IC50 [1] was 20 to 100 µM and the IC50 [3] was ≥ 100 µM.
O=C(Nc1ccccc1)c1cc(-c2ccco2)ccc1O [#21, 5-(Furan-2-yl)-2-hydroxy-N-phenylbenzamide] was tested, and the IC50 [1] was ≥ 100 µM and the IC50 [3] was ≥ 100 µM.
For O=C(NCCO)c1cc(-c2ccc(/C=C3\Sc4ccccc4C3=O)o2)ccc1O [#22, (Z)-2-Hydroxy-N-(2-hydroxyethyl)-5-(5-((3-oxobenzo[b]thiophen-2(3H)-ylidene)methyl)furan-2-yl)benzamide], the IC50 [1] was ≥ 100 µM and the IC50 [3] was ≥ 100 µM.
For CN1CCN(C(=O)c2cc(-c3ccc(/C=C4\Sc5ccccc5C4=O)o3)ccc2O)CC1 [#23, (Z)-2-((5-(4-Hydroxy-3-(4-methylpiperazine-1-carbonyl)phenyl)furan-2-yl)methylene)benzo[b]thiophen-3(2H)-one], the IC50 [1] was ≥ 100 µM and the IC50 [3] was ≥ 100 µM.
With O=C(Nc1ccccc1)c1cc(-c2ccc(/C=C3\Sc4ccccc4C3=O)o2)ccc1F [#24, (Z)-2-Fluoro-5-(5-((3-oxobenzo[b]thiophen-2(3H)-ylidene)methyl)furan-2-yl)-N-phenylbenzamide] the IC50 [1] was ≥ 100 µM and the IC50 [3] was ≥ 100 µM.
In the case of O=C1/C(=C/c2ccc(-c3ccccc3)o2)Sc2ccccc21 [#25, (Z)-2-((5-phenylfuran-2-yl)methylene)benzo[b]thiophen-3(2H)-one], the IC50 [1] is reported as ≥ 100 µM and the IC50 [3] is reported as ≥ 100 µM.
CC(C)NC(=O)c1cc(-c2ccc(/C=C3\Oc4ccccc4C3=O)o2)ccc1O [#26] gave an IC50 [1] of 1 to 20 µM and an IC50 [3] of 1 to 20 µM.
In the case of C/C=C1\CC/C(=C\c2ccc(-c3ccc(O)c(C(=O)O)c3)o2)C1=O [#27], the IC50 [1] is reported as 1 to 20 µM and the IC50 [3] is reported as 1 to 20 µM.
Molecule O=C(O)c1ccc(-c2ccc(/C=C3\Sc4ccccc4C3=O)o2)cc1 [#28] has an IC50 [1] of 1 to 20 µM and an IC50 [3] of 1 to 20 µM.
Molecule O=C(Nc1ccccc1)c1cc(F)cc(-c2ccc(/C=C3\Sc4ccccc4C3=O)o2)c1 [#29] has an IC50 [1] of 1 to 20 µM and an IC50 [3] of 20 to 100 µM.
In the case of O=C(O)c1cccc(-c2cccc(/C=C3\Sc4ccccc4C3=O)c2)c1 [#30], the IC50 [1] is reported as 1 to 20 µM and the IC50 [3] is reported as 1 to 20 µM.
Molecule O=C(O)c1cccc(-c2ccc(/C=C3\Sc4ccccc4C3=O)o2)c1 [#31] has an IC50 [1] of 1 to 20 µM and an IC50 [3] of 1 to 20 µM.
O=C(O)c1cc(-c2ccc(/C=C3\Sc4ccccc4C3=O)o2)ccc1F [#32] was tested, and the IC50 [1] was 1 to 20 µM and the IC50 [3] was 20 to 100 µM.
Work on COc1cccc(NC(=O)c2cccc(-c3ccc(/C=C4\Sc5ccccc5C4=O)o3)c2)c1 [#33] yielded an IC50 [1] of 1 to 20 µM and an IC50 [3] of 20 to 100 µM.
With O=C(O)c1cccc(-c2ccc(/C=C3\Cc4ccccc4C3=O)o2)c1 [#34] the IC50 [1] was 1 to 20 µM and the IC50 [3] was 20 to 100 µM.
COc1ccc(-c2ccc(/C=C3\Sc4ccccc4C3=O)o2)cc1C(=O)O [#35] was tested, and the IC50 [1] was 1 to 20 µM and the IC50 [3] was 20 to 100 µM.
Molecule O=C1CCC/C1=C\c1ccc(-c2cccc(C(=O)O)c2)o1 [#36] has an IC50 [1] of 20 to 100 µM and an IC50 [3] of 20 to 100 µM.
Molecule O=C(/C=C/c1ccc(-c2ccc(O)c(C(=O)O)c2)o1)c1ccccc1 [#37] has an IC50 [1] of 20 to 100 µM and an IC50 [3] of 20 to 100 µM.
With O=C(Nc1ccc2ccccc2n1)c1cccc(-c2ccc(/C=C3\Sc4ccccc4C3=O)o2)c1 [#38] the IC50 [1] was 20 to 100 µM and the IC50 [3] was ≥ 100 µM.
O=C1NC(=O)/C(=C/c2ccc(-c3cccc(C(=O)Nc4ccccc4)c3)o2)S1 [#39] was tested, and the IC50 [1] was 20 to 100 µM and the IC50 [3] was 20 to 100 µM.
In the case of O=C1/C(=C/c2ccc(-c3ccc(O)c(C(=O)O)c3)o2)CC/C1=C\c1ccc(-c2ccc(O)c(C(=O)O)c2)o1 [#44], the IC50 [1] is reported as ≤ 1 µM and the IC50 [3] is reported as 1 to 20 µM.
O=C1/C(=C/c2ccc(O)c(C(=O)O)c2)CC/C1=C\c1ccc(O)c(C(=O)O)c1 [#47] was tested, and the IC50 [1] was 1 to 20 µM and the IC50 [3] was 1 to 20 µM.
For O=C(/C=C/c1ccc(Br)o1)c1cccc(C(=O)/C=C/c2ccc(Br)o2)c1 [#48], the IC50 [1] was 20 to 100 µM and the IC50 [3] was 20 to 100 µM.
